According to ChEMBL document CHEMBL1201862, “PubChem BioAssay data set” (2004):
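Results reflect a 48-hour exposure of cells in 96-well plates to compound at five concentrations. GI50 is the concentration that inhibits growth by half.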 Active and inactive are the calls of the source. Cut-off read from the data, not from the text of the source: active = GI50 up to about 1.1 µM and inactive = higher.

What was measured:
Experiment in all cases: DTP human tumour cell line panel, 48 h
[1] = system: 786-0
[2] = system: A498
[3] = system: ACHN
[4] = system: CCRF-CEM
[5] = system: HCC 2998
[6] = system: HL-60
[7] = system: HOP-92
[8] = system: HT-29
[9] = system: MDA-MB-231
[10] = system: Malme-3M
[11] = system: NCI-H23
[12] = system: SK-MEL-28
[13] = system: SK-MEL-2
[14] = system: SN12C
[15] = system: SNB-19
[16] = system: SW-620
[17] = system: T47D
[18] = system: CAKI-1
[19] = system: OVCAR-3
[20] = system: SF-295

SMILES	GI50 [1]	GI50 [2]	GI50 [3]	GI50 [4]	GI50 [5]	GI50 [6]	GI50 [7]	GI50 [8]	GI50 [9]	GI50 [10]	GI50 [11]	GI50 [12]	GI50 [13]	GI50 [14]	GI50 [15]	GI50 [16]	GI50 [17]	GI50 [18]	GI50 [19]	GI50 [20]
O=C1C(Cl)C2(CC(/C=C/c3ccccc3O)=NN2c2cccc(S(=O)(=O)O)c2)N1c1nc2ccccc2s1 (centres undefined)	15.6 µM (inactive)	20.9 µM (inactive)	20.2 µM (inactive)	7.24 µM (inactive)	14.5 µM (inactive)	3.54 µM (inactive)	19.7 µM (inactive)	18.6 µM (inactive)	22.5 µM (inactive)	13.8 µM (inactive)	15.6 µM (inactive)	24.2 µM (inactive)	16.8 µM (inactive)	14.2 µM (inactive)	30.8 µM (inactive)	17.4 µM (inactive)	17.4 µM (inactive)			
C/N=c1\sc2nc(C#N)c(C#N)nc2n1C	25.8 µM (inactive)	20.5 µM (inactive)	22.5 µM (inactive)	19.7 µM (inactive)	25.5 µM (inactive)	10.9 µM (inactive)	21.2 µM (inactive)	15.9 µM (inactive)	40.1 µM (inactive)	17.6 µM (inactive)	18.3 µM (inactive)	29.2 µM (inactive)	16.5 µM (inactive)	37.9 µM (inactive)	28.4 µM (inactive)	18.4 µM (inactive)	34 µM (inactive)	23.8 µM (inactive)	24.5 µM (inactive)	18 µM (inactive)
Cc1cc(N(CCC#N)CCC#N)ccc1/C=C(\NC(=O)/C=C/c1ccccc1)C(=O)Nc1ccc(Cl)cc1	> 100 µM (inactive)	> 100 µM (inactive)	1.83 µM (inactive)	2.44 µM (inactive)	4.33 µM (inactive)	5.6 µM (inactive)	> 100 µM (inactive)	> 14.3 µM (inactive)	> 100 µM (inactive)	14.2 µM (inactive)	> 63.1 µM (inactive)	> 100 µM (inactive)	> 59.6 µM (inactive)	> 75.7 µM (inactive)	> 100 µM (inactive)	12.3 µM (inactive)	> 100 µM (inactive)	> 28.3 µM (inactive)	50.8 µM (inactive)	4.86 µM (inactive)
COc1ccc(CCNC(=O)Cc2cc(OC)c(OC)cc2CO)cc1OC	> 100 µM (inactive)	> 100 µM (inactive)	> 100 µM (inactive)	> 100 µM (inactive)	> 100 µM (inactive)	> 100 µM (inactive)	> 100 µM (inactive)	> 100 µM (inactive)	> 100 µM (inactive)		> 100 µM (inactive)	> 100 µM (inactive)	> 100 µM (inactive)	> 100 µM (inactive)		> 100 µM (inactive)	> 100 µM (inactive)	> 100 µM (inactive)	> 100 µM (inactive)	> 100 µM (inactive)
COC(=O)C1=C(OC(=O)/C(=C/c2ccc(Cl)cc2)c2ccccc2)C(C(=O)OC)[C@@]2(O)[C@@H](C(=O)OC)[C@H](C)C[C@@H]1[C@@H]2C(=O)OC (some centres undefined)	> 100 µM (inactive)	5.55 µM (inactive)	> 100 µM (inactive)	> 100 µM (inactive)	> 100 µM (inactive)	> 100 µM (inactive)	0.573 µM (active)	> 100 µM (inactive)	> 100 µM (inactive)	> 100 µM (inactive)	9.73 µM (inactive)	> 100 µM (inactive)	> 100 µM (inactive)	> 100 µM (inactive)	77.8 µM (inactive)	> 100 µM (inactive)	> 100 µM (inactive)	> 100 µM (inactive)	> 100 µM (inactive)	6.79 µM (inactive)
CC(=O)OC12c3ccccc3-c3ccccc3C1C(C(=O)O)C2(Cl)C(=O)O (centres undefined)	> 10 µM (inactive)	> 10 µM (inactive)	> 10 µM (inactive)	> 10 µM (inactive)	> 10 µM (inactive)	> 10 µM (inactive)	> 10 µM (inactive)	> 10 µM (inactive)	> 10 µM (inactive)	> 10 µM (inactive)	> 10 µM (inactive)	> 10 µM (inactive)	> 10 µM (inactive)	> 10 µM (inactive)	> 10 µM (inactive)	> 10 µM (inactive)	> 10 µM (inactive)	> 10 µM (inactive)	> 10 µM (inactive)	> 10 µM (inactive)
O=C1C/C(=C\O)C(=O)c2ccccc2N1	> 100 µM (inactive)	> 100 µM (inactive)	> 100 µM (inactive)	> 100 µM (inactive)	> 100 µM (inactive)	> 100 µM (inactive)	> 100 µM (inactive)	> 100 µM (inactive)	> 100 µM (inactive)	> 100 µM (inactive)	> 100 µM (inactive)	> 100 µM (inactive)	> 100 µM (inactive)	> 100 µM (inactive)	> 100 µM (inactive)		61.8 µM (inactive)	> 100 µM (inactive)	> 100 µM (inactive)	> 100 µM (inactive)
Cc1cccc(C(C)C)c1NC(=O)C(=O)CC(=O)c1sc(Nc2ccccc2Cl)nc1C	32.8 µM (inactive)	> 100 µM (inactive)	51.4 µM (inactive)	30.3 µM (inactive)	11.6 µM (inactive)	16.1 µM (inactive)	10.4 µM (inactive)		41 µM (inactive)	> 100 µM (inactive)	35 µM (inactive)	> 100 µM (inactive)	12.8 µM (inactive)	64.9 µM (inactive)	56.4 µM (inactive)	35.2 µM (inactive)	35.8 µM (inactive)	85.3 µM (inactive)	32 µM (inactive)	12.9 µM (inactive)
COC(=O)c1c(C(=O)OC)c2c3ccccc3n(C)c2c2c1c1ccccc1n2C	34.2 µM (inactive)	95.1 µM (inactive)	> 100 µM (inactive)	> 100 µM (inactive)	> 100 µM (inactive)		> 100 µM (inactive)	> 100 µM (inactive)	17.1 µM (inactive)	89.9 µM (inactive)	> 100 µM (inactive)	> 100 µM (inactive)	46.8 µM (inactive)	> 100 µM (inactive)	27.6 µM (inactive)	> 100 µM (inactive)	> 100 µM (inactive)	> 100 µM (inactive)		91.4 µM (inactive)
CCOC(=O)N1CCC2(CC1)C[C@@](C(C)=O)(c1ccccc1)C(C)O2 (some centres undefined)	> 100 µM (inactive)	> 100 µM (inactive)	> 100 µM (inactive)		> 100 µM (inactive)	> 100 µM (inactive)	61.1 µM (inactive)	> 100 µM (inactive)	> 100 µM (inactive)	> 100 µM (inactive)	> 100 µM (inactive)	> 100 µM (inactive)	> 100 µM (inactive)		> 100 µM (inactive)	> 100 µM (inactive)	17 µM (inactive)	> 100 µM (inactive)	> 100 µM (inactive)	> 100 µM (inactive)
C/C(=N\NC(=S)N1CCCCCC1)c1cccc2cccnc12	2.01 µM (inactive)	5.64 µM (inactive)	0.375 µM (active)	< 0.01 µM (active)	2.76 µM (inactive)	1.25 µM (inactive)	11.7 µM (inactive)	1.4 µM (inactive)	2.12 µM (inactive)	3.17 µM (inactive)	1.32 µM (inactive)	1.77 µM (inactive)	19.5 µM (inactive)		1.76 µM (inactive)	1.55 µM (inactive)	0.966 µM (active)	0.355 µM (active)	0.0203 µM (active)	0.271 µM (active)
CN(C)c1n/c(=N/Cc2ccccn2)ss1	> 4.16 µM (inactive)	> 10 µM (inactive)	> 10 µM (inactive)	1.24 µM (inactive)	> 10 µM (inactive)	2.18 µM (inactive)	> 10 µM (inactive)	> 10 µM (inactive)	> 10 µM (inactive)	> 4.61 µM (inactive)	> 10 µM (inactive)	> 10 µM (inactive)		9.77 µM (inactive)	> 10 µM (inactive)	> 6.4 µM (inactive)	> 10 µM (inactive)	> 7.94 µM (inactive)	> 10 µM (inactive)	> 10 µM (inactive)
C=C(Cl)C(Cl)(CCl)CCC(Br)C(C)(C)Br (centres undefined)	> 10 µM (inactive)	> 10 µM (inactive)	> 10 µM (inactive)	> 10 µM (inactive)	> 10 µM (inactive)	> 10 µM (inactive)	> 10 µM (inactive)	> 10 µM (inactive)	> 10 µM (inactive)		> 10 µM (inactive)	> 10 µM (inactive)	> 10 µM (inactive)	> 10 µM (inactive)	> 10 µM (inactive)	> 10 µM (inactive)	> 10 µM (inactive)	> 10 µM (inactive)	> 10 µM (inactive)	> 10 µM (inactive)
O=CN(O)CC(=O)O	> 100 µM (inactive)	> 100 µM (inactive)	> 100 µM (inactive)	> 100 µM (inactive)	> 100 µM (inactive)	> 100 µM (inactive)	> 100 µM (inactive)	> 100 µM (inactive)	> 100 µM (inactive)	> 100 µM (inactive)	> 100 µM (inactive)	> 100 µM (inactive)	> 100 µM (inactive)	> 100 µM (inactive)	> 100 µM (inactive)	> 100 µM (inactive)	> 100 µM (inactive)		> 100 µM (inactive)	> 100 µM (inactive)
NC(=O)c1nnsc1NC=O	> 100 µM (inactive)	> 100 µM (inactive)	> 100 µM (inactive)	> 100 µM (inactive)	> 100 µM (inactive)	> 100 µM (inactive)	75 µM (inactive)	> 100 µM (inactive)	> 100 µM (inactive)	> 100 µM (inactive)	> 100 µM (inactive)	> 100 µM (inactive)	> 100 µM (inactive)	> 100 µM (inactive)	> 100 µM (inactive)	> 100 µM (inactive)	> 100 µM (inactive)	> 100 µM (inactive)		> 100 µM (inactive)
